Common to all, as to format: cell-based
Data set [1] has as its system hepatitis B virus. Put plainly: Hepatitis B virus replication in HepAD38 cells (genome equivalents in intracellular virions, core antigen immunoblots, viral RNA PCR). Particulars: HepAD38 cells without tetracycline 10 days, 250 nM or 500 nM added on day 8 for 48 h or day 9 for 24 h. As for the experimental part: (§1) FIGS. 7A-D show enhanced expression of the Suz12 repressed genes and proliferation genes in the presence of hepatitis B virus replication. […] HepAD38 cells were grown with (+) or without (−) tetracycline for 10 days, i.e. without (−) or with (+) hepatitis B virus replication, respectively. Hepatitis B virus genome equivalents were quantified by real-time PCR of DNA isolated from purified intracellular virions as described (Wang et al., Hepatology, 53:1137-47, 2011). (Left panel) Effect of DMSO addition (5.0 μl) on hepatitis B virus replication. (Right panel) 250 nM or 500 nM BI 2536 dissolved in DMSO (5.0 μl) added on day 8 for 48 h or day 9 for 24 h, as indicated, prior to cell harvesting. Results represent the average of three independent experiments. Error bars indicate+/−standard 1 error of the mean. […] Relative intensity of indicated protein levels was quantified by ImageJ software vs. actin. […] Quantification is relative to GAPDH used as internal control. […]
(§2) Whole cell extract isolated without (−) or with (+) 1 addition of BI 2536 were immunoblotted for hepatitis B virus core antigen, caspase 3 and cleaved/active caspase. […] Expression of viral RNA was quantified by real-time PCR employing primer pairs described by Zhang et al. (Hepatology 53:1476-1485, 2011). […] Quantification of indicated proteins is by ImageJ software vs. actin. […]
On the technique in general: A western blot detects proteins with antibodies after separation by electrophoresis.

Data set [2] has as its system HepAD38 cells. Put plainly: Apoptosis in HBV-replicating HepAD38 cells by immunoblot of pro-caspase-3 and caspase-3. Particulars: 250 nM or 500 nM added on day 8 for 48 h or day 9 for 24 h. The source says: Whole cell extract isolated without (−) or with (+) 1 addition of BI 2536 were immunoblotted for hepatitis B virus core antigen, caspase 3 and cleaved/active caspase. […] Expression of viral RNA was quantified by real-time PCR employing primer pairs described by Zhang et al. (Hepatology 53:1476-1485, 2011). Results are the average from two independent WCE preparations. Error bars indicate+/−standard error of the mean. […] Quantification of indicated proteins is by ImageJ software vs. actin. Results are the average from two independent WCE preparations. Error bars indicate+/−standard error of the mean.
(§3) Employing the HepAD38 cell line that supports hepatitis B virus replication following tetracycline removal (Ladner et al., Antimicrobial Agents and Chemotherapy, 41:1715-1720, 1997), viral replication as well as expression of the Suz12-repressed and proliferation cluster genes were quantified 10 days after induction of hepatitis B virus replication (FIG. 7). Also, the effect of Plk1 inhibition on viral replication and expression of the proliferation cluster and Suz12 target genes was investigated. […] Under these conditions of Plk1 inhibition, expression of the proliferation cluster and Suz12-repressed genes on day 10 of hepatitis B virus replication was quantified (FIG. 7C and D). Expression of both gene clusters increased in the presence of hepatitis B virus replication (FIG. 7C and D).

Data set [3] deals with Suz12 and Znf198. Put plainly: Immunoblots of Suz12 and Znf198 protein levels in HepAD38 cell lysates. Particulars: HepAD38 cells, day 10 of HBV replication; 500 nM for 24 h; vs. actin. How it is done:
as §1, §2

The test system of data set [4] is proliferation gene cluster and Suz12 repressed genes. Put plainly: Real-time PCR of proliferation gene cluster and Suz12 repressed genes in HepAD38 cells. Particulars: day 10 of HBV replication, 500 nM for 24 h, relative to GAPDH. How it is done: FIGS. 7A-D show enhanced expression of the Suz12 repressed genes and proliferation genes in the presence of hepatitis B virus replication. […] HepAD38 cells were grown with (+) or without (−) tetracycline for 10 days, i.e. without (−) or with (+) hepatitis B virus replication, respectively. Hepatitis B virus genome equivalents were quantified by real-time PCR of DNA isolated from purified intracellular virions as described (Wang et al., Hepatology, 53:1137-47, 2011). (Left panel) Effect of DMSO addition (5.0 μl) on hepatitis B virus replication. (Right panel) 250 nM or 500 nM BI 2536 dissolved in DMSO (5.0 μl) added on day 8 for 48 h or day 9 for 24 h, as indicated, prior to cell harvesting. Results represent the average of three independent experiments. Error bars indicate+/−standard 1 error of the mean. […] Relative intensity of indicated protein levels was quantified by ImageJ software vs. actin. A representative experiment is shown from three independent experiments. […] Quantification is relative to GAPDH used as internal control. Results are from three independent RNA isolations. PCR assays were performed in triplicates. Error bars indicate+/−standard error of the mean.
cDNA was synthesized from 2.0 μg total RNA using iSCRIPT cDNA synthesis kit (Bio-Rad). Real-time PCR reactions were performed in triplicates and normalized to GAPDH.
as §3, with “Expression of both gene clusters increased in the presence of hepatitis B virus replication (FIG. 7C and D).” left out
A general note: Real-time PCR tracks product formation cycle by cycle.

Take `CC[C@@H]1C(=O)N(C)c2cnc(Nc3ccc(C(=O)NC4CCN(C)CC4)cc3OC)nc2N1C1CCCC1` [BI 2536]: the “hepatitis B virus replication (genome equivalents in purified intracellular virions, core antigen immunoblots, viral RNA PCR)” value in data set [1] is reported as “suppressed hepatitis B virus replication”. Moreover, the “hepatitis B virus replication (genome equivalents in purified intracellular virions, core antigen immunoblots, viral RNA PCR)” value in data set [1] (listed as BI2536) is listed as “significantly reduced”. Moreover, the “apoptosis (levels of pro-caspase-3 and caspase-3)” value in data set [2] was “did not induce apoptosis”. In data set [3], the “protein level of Suz12” value is listed as “increased” and the “protein level of Znf198” value is “increased”. In data set [4], the “expression of the Suz12 repressed genes DKK2, EpCAM and IGFII” value is given as “significantly decreased”; the “expression of the proliferation genes” value was “significantly reduced”. Further, in data set [4] (listed as BI2536), the “expression of the Suz12 repressed genes DKK2, EpCAM and IGFII” value is on record as “significantly reduced”.
